Laboratory results: US8268862B2, “Sirtuin modulating compounds” (Sirtris Pharmaceuticals, Inc., priority 2007, dated 2012)

Molecular target: T1, SIRT1 (Homo sapiens, UniProt Q96EB6)
T1 sequence (Q96EB6 1-747): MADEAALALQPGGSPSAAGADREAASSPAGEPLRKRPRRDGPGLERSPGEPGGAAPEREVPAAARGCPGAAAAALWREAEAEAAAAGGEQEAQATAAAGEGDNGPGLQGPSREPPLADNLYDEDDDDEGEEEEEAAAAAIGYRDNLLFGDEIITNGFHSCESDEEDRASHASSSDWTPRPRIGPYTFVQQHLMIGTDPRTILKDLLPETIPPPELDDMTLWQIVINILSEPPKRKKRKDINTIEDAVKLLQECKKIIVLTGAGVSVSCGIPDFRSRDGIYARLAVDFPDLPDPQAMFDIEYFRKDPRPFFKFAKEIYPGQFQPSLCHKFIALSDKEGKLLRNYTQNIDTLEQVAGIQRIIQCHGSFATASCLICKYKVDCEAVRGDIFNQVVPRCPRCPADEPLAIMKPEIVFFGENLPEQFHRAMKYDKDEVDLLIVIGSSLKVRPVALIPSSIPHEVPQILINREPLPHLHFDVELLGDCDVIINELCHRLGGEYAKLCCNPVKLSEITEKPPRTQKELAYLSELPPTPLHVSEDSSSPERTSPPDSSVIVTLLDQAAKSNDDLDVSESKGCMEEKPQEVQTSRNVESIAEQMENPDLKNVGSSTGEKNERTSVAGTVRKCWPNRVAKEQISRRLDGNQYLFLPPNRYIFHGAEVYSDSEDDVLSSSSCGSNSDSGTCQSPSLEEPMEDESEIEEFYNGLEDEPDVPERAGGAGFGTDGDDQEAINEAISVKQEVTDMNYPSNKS
Assay: mass spectrometry based SIRT1 deacetylation assay (activation)
Type: biochemical
Conditions: 0.5 μM peptide substrate, 120 μM βNAD+, 10 nM SIRT1, 25 min at 25° C.; for EC1.5 (concentration of test compound that results in 150% activation of SIRT1): NA = not active in the assay; for Emax: read-out: % FOLD ACT. (percent maximum fold activation of SIRT1)

With O=C1CN(Cc2cnc3sc(-c4ccccc4NC(=O)c4ccc5ccccc5n4)nc3c2)CCN1 [Compound 103] the “EC1.5 (concentration of test compound that results in 150% activation of SIRT1)” value was 230 NM and the Emax was 273%.

O=C(Nc1ccccc1-c1nc2cc(CN3CCNCC3)cnc2s1)c1cn2cc(Cl)ccc2n1 [Compound 125] showed an Emax of 437%.

Cc1cc(C(=O)Nc2ccccc2-c2nc3cc(CN4CCCC4)cnc3s2)nc(-c2ccccc2)n1 [Compound 135] was tested, and the “EC1.5 (concentration of test compound that results in 150% activation of SIRT1)” value was 759 NM and the Emax was 274%.

For NC1CCN(Cc2cnc3sc(-c4ccccc4NC(=O)c4cccc(-c5ccccc5)c4)nc3c2)CC1 [Compound 11], the “EC1.5 (concentration of test compound that results in 150% activation of SIRT1)” value was 78 NM and the Emax was 578%.

O=C(Nc1ccccc1-c1nc2cc(CN3CCOCC3)cnc2s1)c1cccc(-c2ccccc2F)c1 [Compound 48] was tested, and the “EC1.5 (concentration of test compound that results in 150% activation of SIRT1)” value was 395 NM and the Emax was 222%.

For O=C(Nc1ccccc1-c1nc2cc(CN3CCCC3)cnc2s1)c1cccc(-c2ccccc2)c1 [Compound 13], the “EC1.5 (concentration of test compound that results in 150% activation of SIRT1)” value was 584 NM and the Emax was 252%.

In the case of O=C(Nc1ccccc1-c1nc2cc(CN3CC[C@@H](F)C3)cnc2s1)c1cccc(-c2cccnc2)c1 [Compound 27], the “EC1.5 (concentration of test compound that results in 150% activation of SIRT1)” value is reported as 913 NM and the Emax is reported as 185%.

With O=C(Nc1ccccc1-c1nc2cc(CN3CCNCC3)cnc2s1)c1cccc(-c2ccncc2)c1 [Compound 10] the “EC1.5 (concentration of test compound that results in 150% activation of SIRT1)” value was 492 NM and the Emax was 316%.

For O=C(Nc1ccccc1-c1nc2cc(CN3CCOCC3)cnc2s1)c1cccc(-c2ccccc2)n1 [Compound 55], the “EC1.5 (concentration of test compound that results in 150% activation of SIRT1)” value was 74 NM and the Emax was > 500%.

O=C(Nc1ccccc1-c1nc2ccc(CN3CCNCC3)nc2s1)c1ccc2ccccc2n1 [Compound 69] was tested, and the “EC1.5 (concentration of test compound that results in 150% activation of SIRT1)” value was 687 NM and the Emax was > 500%.

With Cc1nc(-c2cccnc2)sc1C(=O)Nc1ccccc1-c1nc2cc(CN3C[C@@H](C)N[C@@H](C)C3)cnc2s1 [Compound 81] the Emax was 131%.

Work on O=C(Nc1ccccc1-c1nc2cc(CN3CCOCC3)cnc2s1)c1ccnc(-c2ccccc2)n1 [Compound 72] yielded an Emax of 100%.

In the case of O=C(Nc1ccccc1-c1nc2cc(CN3CCOCC3)cnc2s1)c1cc(-c2ccccc2)no1 [Compound 2], the Emax is reported as 132%.

For CC(C)NCc1cnc2sc(-c3ccccc3NC(=O)c3cccc(-c4ccccn4)c3)nc2c1 [Compound 14], the “EC1.5 (concentration of test compound that results in 150% activation of SIRT1)” value was 937 NM and the Emax was 381%.

In the case of COCCN1CCN(Cc2cnc3sc(-c4ccccc4NC(=O)c4cccc(-c5ccc(F)cc5F)n4)nc3c2)CC1 [Compound 142], the “EC1.5 (concentration of test compound that results in 150% activation of SIRT1)” value is reported as 394 NM and the Emax is reported as 378%.

For COc1ccc(-c2ccc(C(=O)Nc3ccccc3-c3nc4cc(CN5CCOCC5)cnc4s3)o2)cc1 [Compound 74], the “EC1.5 (concentration of test compound that results in 150% activation of SIRT1)” value was 421 NM and the Emax was 236%.

COCCN1CCN(Cc2cnc3sc(-c4ccccc4NC(=O)c4cccc(-c5ccccc5)c4)nc3c2)CC1 [Compound 33] was tested, and the “EC1.5 (concentration of test compound that results in 150% activation of SIRT1)” value was 91 NM and the Emax was 533%.

O=C(Nc1ccccc1-c1nc2cc(CN3CCOCC3)cnc2s1)c1cnc2ccccc2c1 [Compound 106] was tested, and the “EC1.5 (concentration of test compound that results in 150% activation of SIRT1)” value was 69840 NM and the Emax was 189%.

In the case of N[C@@H]1CCN(Cc2cnc3sc(-c4ccccc4NC(=O)c4ccc5ccccc5n4)nc3c2)C1 [Compound 109], the “EC1.5 (concentration of test compound that results in 150% activation of SIRT1)” value is reported as 270 NM and the Emax is reported as > 500%.

With O=C(Nc1ccccc1-c1nc2cc(CN3CCOCC3)cnc2s1)c1cccc(-c2cccnc2)c1 [Compound 5] the “EC1.5 (concentration of test compound that results in 150% activation of SIRT1)” value was 665 NM and the Emax was 281%.

In the case of COCCN1CCN(Cc2cnc3sc(-c4ccccc4NC(=O)c4cccc(-c5ccccc5)n4)nc3c2)CC1 [Compound 47], the “EC1.5 (concentration of test compound that results in 150% activation of SIRT1)” value is reported as 82 NM.

In the case of O=C(Nc1ccccc1-c1nc2cc(CN3CC[C@@H](F)C3)cnc2s1)c1cccc(-n2cccn2)c1 [Compound 43], the “EC1.5 (concentration of test compound that results in 150% activation of SIRT1)” value is reported as 215 NM and the Emax is reported as 236%.

In the case of O=C(Nc1ccccc1-c1nc2cc(CN3CCOCC3)cnc2s1)c1ccc2ccccc2n1 [Compound 68], the “EC1.5 (concentration of test compound that results in 150% activation of SIRT1)” value is reported as 593 NM and the Emax is reported as 295%.

O=C(Nc1ccccc1-c1nc2cc(CN3CCNCC3)cnc2s1)c1ccc2ncsc2c1 [Compound 70] showed an Emax of 298%.

O=C(Nc1ccccc1-c1nc2cc(CN3CCNCC3)cnc2s1)c1cccc(-c2ccccn2)c1 [Compound 8] was tested, and the “EC1.5 (concentration of test compound that results in 150% activation of SIRT1)” value was 340 NM and the Emax was 471%.

In the case of O=C(Nc1ccccc1-c1nc2cc(CN3CCCC3)cnc2s1)c1ccn(-c2ccccc2)n1 [Compound 154], the “EC1.5 (concentration of test compound that results in 150% activation of SIRT1)” value is reported as 428 NM and the Emax is reported as 277%.

In the case of COCCN1CCN(Cc2cnc3sc(-c4ccccc4NC(=O)c4cccc(-c5ccc(C(F)(F)F)cc5)n4)nc3c2)CC1 [Compound 136], the “EC1.5 (concentration of test compound that results in 150% activation of SIRT1)” value is reported as 448 NM and the Emax is reported as 461%.

For O=C(Nc1ccccc1-c1nc2cc(CN3CCOCC3)cnc2s1)c1cccc(-n2cccn2)c1 [Compound 40], the “EC1.5 (concentration of test compound that results in 150% activation of SIRT1)” value was 182 NM and the Emax was 397%.

For O=C(Nc1ccccc1-c1nc2cc(CN3CCOCC3)cnc2s1)c1cn2ccccc2n1 [Compound 111], the “EC1.5 (concentration of test compound that results in 150% activation of SIRT1)” value was 1610 NM and the Emax was 427%.

For O=C(Nc1ccccc1-c1nc2cc(CN3CCOCC3)cnc2s1)c1cn2cc(Cl)ccc2n1 [Compound 127], the Emax was 143%.

For CC(C)NCc1cnc2sc(-c3ccccc3NC(=O)c3cncc(-c4ccccc4)c3)nc2c1 [Compound 28], the “EC1.5 (concentration of test compound that results in 150% activation of SIRT1)” value was 3590 NM and the Emax was 162%.

In the case of COCCN1CCN(Cc2cnc3sc(-c4ccccc4NC(=O)c4cccc(-c5cccc(C(F)(F)F)c5)n4)nc3c2)CC1 [Compound 140], the “EC1.5 (concentration of test compound that results in 150% activation of SIRT1)” value is reported as 41 NM and the Emax is reported as 500%.

For COCCN1CCN(Cc2cnc3sc(-c4ccccc4NC(=O)c4ccnc(-c5ccccc5)c4)nc3c2)CC1 [Compound 56], the “EC1.5 (concentration of test compound that results in 150% activation of SIRT1)” value was 458 NM and the Emax was 389%.

In the case of COCCN1CCN(Cc2cnc3sc(-c4ccccc4NC(=O)c4cc(C)nc(-c5ccccc5)n4)nc3c2)CC1 [Compound 131], the “EC1.5 (concentration of test compound that results in 150% activation of SIRT1)” value is reported as 106 NM and the Emax is reported as 500%.

O=C(Nc1ccccc1-c1nc2cc(CN3CCOCC3)cnc2s1)c1cnc2ccccc2n1 [Compound 65] gave an Emax of 100%.

In the case of O=C(Nc1ccccc1-c1nc2cc(CN3CC[C@@H](F)C3)cnc2s1)c1cccc(-c2ncccn2)c1 [Compound 31], the “EC1.5 (concentration of test compound that results in 150% activation of SIRT1)” value is reported as 1000 NM and the Emax is reported as 168%.

With COCCN1CCN(Cc2cnc3sc(-c4ccccc4NC(=O)c4cccc(-c5ccccn5)c4)nc3c2)CC1 [Compound 34] the “EC1.5 (concentration of test compound that results in 150% activation of SIRT1)” value was 281 NM and the Emax was 492%.

Cn1cc(-c2ccccc2)cc1C(=O)Nc1ccccc1-c1nc2cc(CN3CCOCC3)cnc2s1 [Compound 150] was tested, and the “EC1.5 (concentration of test compound that results in 150% activation of SIRT1)” value was 67 NM and the Emax was 267%.

O=C(Nc1ccccc1-c1nc2cc(CN3CCOCC3)cnc2s1)c1cccc(-c2ccncc2)c1 [Compound 6] was tested, and the “EC1.5 (concentration of test compound that results in 150% activation of SIRT1)” value was 746 NM and the Emax was 274%.

With COCCN1CCN(Cc2cnc3sc(-c4ccccc4NC(=O)c4cc(-c5ccccc5)ccn4)nc3c2)CC1 [Compound 86] the Emax was 137%.

C[C@@H]1CN(Cc2cnc3sc(-c4ccccc4NC(=O)c4cccc(-c5ccncc5)c4)nc3c2)C[C@H](C)N1 [Compound 17] was tested, and the “EC1.5 (concentration of test compound that results in 150% activation of SIRT1)” value was 683 NM and the Emax was 360%.

In the case of NC1CCN(Cc2cnc3sc(-c4ccccc4NC(=O)c4cccc(-c5ccncc5)c4)nc3c2)CC1 [Compound 12], the “EC1.5 (concentration of test compound that results in 150% activation of SIRT1)” value is reported as 249 NM and the Emax is reported as 550%.

COCCN1CCN(Cc2cnc3sc(-c4ccccc4NC(=O)c4cccc(-c5cccnc5)c4)nc3c2)CC1 [Compound 58] was tested, and the “EC1.5 (concentration of test compound that results in 150% activation of SIRT1)” value was 884 NM and the Emax was 370%.
